According to patent US5093359A, “Primycin components and process for the separation of the antibiotic complex” (priority 1984, dated 1992):
Values after ≈ are worked out from the molar mass of the structure shown.

Assays:
[1] = system: Listeria monocytogenes CCM.5576.; experiment: MIC, strain 18; assay type: cell-based
[2] = system: Staphylococcus aureus CCM.2514; experiment: MIC, strain 5; assay type: cell-based
[3] = system: Staphylococcus epidermidis CCM.2271; experiment: MIC, strain 7; assay type: cell-based
[4] = system: Pseudomonas fluorescens CCM.2115.; experiment: MIC, strain 23; details: 24 h
Method: (§1) The antimicrobial activity of the primycin complex and the components thereof is tested on different microorganism strains.
(§2) (Inoculation: 5 × 10^5 /ml, incubation at 37 C.° for

[5] = system: Staphylococcus aureus Smith; experiment: MIC, strain 8; assay type: cell-based
[6] = system: Proteus vulgaris CCM.1799.; experiment: MIC, strain 25; details: 24 h
Method: as §1, §2

[7] = system: Sporosarcina ureae DSM.317; experiment: MIC, strain 21; details: DSM.317, 24 h
Method: as §1, §2

[8] = system: Salmonella typhimurium CCM.5445.; experiment: MIC, strain 27; details: Salmonella enterica, 24 h
Method: (§3) The table contains the MIC values (/μg/ml) measured on human pathogenic polyresistant strains.
as §1, §2

[9] = system: Shigella sonnei CCM.1373.; experiment: MIC, strain 26; details: 24 h
Method: as §3, §1, §2

[10] = system: Staphylococcus aureus CCM.885.; experiment: MIC, strain 1; assay type: cell-based
[11] = system: Micrococcus flavus ATCC.10240.; experiment: MIC, strain 19; assay type: cell-based
[12] = system: Escherichia coli DSM.30038.; experiment: MIC, strain 28; details: 24 h
Method: as §3, §1, §2

[13] = system: Pseudomonas aeruginosa CCM.1960.; experiment: MIC, strain 22; details: 24 h
Method: as §1, §2

[14] = system: Streptococcus agalactiae CCM.5153.; experiment: MIC, strain 10; assay type: cell-based
[15] = system: Bacillus subtilis CCM.1718.; experiment: MIC, strain 17; assay type: cell-based
[16] = system: Bacillus licheniformis CCM.2182.; experiment: MIC, strain 15; assay type: cell-based
[17] = system: Micrococcus luteus DSM.20030.; experiment: MIC, strain 20; assay type: cell-based
[18] = system: Bacillus cereus CCM.2010.; experiment: MIC, strain 14; assay type: cell-based
[19] = system: Staphylococcus aureus DSM.20231; experiment: MIC, strain 2; assay type: cell-based; details: Staphylococcus aureus
[20] = system: Streptococcus agalactiae CCM.5534.; experiment: MIC, strain 11; assay type: cell-based; details: Streptococcus agalactiae, CCM.5534.
[21] = system: Streptococcus faecalis CCM.1875.; experiment: MIC, strain 9; assay type: cell-based; details: Enterococcus faecalis
[22] = system: Staphylococcus aureus CCM.2317.; experiment: MIC, strain 3; assay type: cell-based
[23] = system: Streptococcus disgalactiae ATTC.9926; experiment: MIC, strain 12; assay type: cell-based
[24] = system: Bacillus subtilis ATTC.6633.; experiment: MIC, strain 13; assay type: cell-based
[25] = system: Staphylococcus aureus CCM.2326.; experiment: MIC, strain 4; assay type: cell-based
[26] = system: Pseudomonas acidoverans CCM.283; experiment: MIC, strain 24; details: CCM.283, 24 h
Method: as §1, §2

[27] = system: Staphylococcus aureus CCM.2515.; experiment: MIC, strain 6; assay type: cell-based
[28] = system: Bacillus licheniformis CCM.2205.; experiment: MIC, strain 16; assay type: cell-based

In the case of `CCCCC1C(=O)OC(C(C)C(O)CCCNC(=N)N)C(C)C=C(C)CCCCC(O)CC(O)CC(O)CC(O)CC(O)C(OC2OC(CO)C(O)C2O)C=C(C)C(O)CCCC(O)CCCC(O)CCC(C)C1O` (stereo not drawn) [A1, chinopricin], the MIC ([1]; 24 h) is reported as 0.5 µg/mL (≈ 0.464 µM), the MIC ([1]; 25 h) is reported as 0.5 µg/mL (≈ 0.464 µM) and the MIC ([2]; CCM.2514, 24 h) is reported as 0.25 µg/mL (≈ 0.232 µM). It also gave an MIC ([2]; CCM.2514, 25 h) of 0.25 µg/mL (≈ 0.232 µM), an MIC ([3]; CCM.2271, 24 h) of 0.75 µg/mL (≈ 0.695 µM) and an MIC ([3]; CCM.2271, 25 h) of 0.75 µg/mL (≈ 0.695 µM). It also gave an MIC [4] of 25 µg/mL (≈ 23.2 µM), an MIC ([5]; 24 h) of 0.25 µg/mL (≈ 0.232 µM) and an MIC ([5]; 25 h) of 0.25 µg/mL (≈ 0.232 µM). The MIC [6] was 50 µg/mL (≈ 46.4 µM), the MIC [7] was 0.025 µg/mL (≈ 0.0232 µM) and the MIC [8] was 50 µg/mL (≈ 46.4 µM). It also gave an MIC [9] of 50 µg/mL (≈ 46.4 µM), an MIC ([10]; 24 h) of 0.25 µg/mL (≈ 0.232 µM) and an MIC ([10]; 25 h) of 0.25 µg/mL (≈ 0.232 µM). The MIC ([11]; 24 h) was 0.075 µg/mL (≈ 0.0695 µM), the MIC ([11]; 25 h) was 0.075 µg/mL (≈ 0.0695 µM) and the MIC [12] was 50 µg/mL (≈ 46.4 µM). It also gave an MIC [13] of 25 µg/mL (≈ 23.2 µM), an MIC ([14]; 24 h) of 0.75 µg/mL (≈ 0.695 µM) and an MIC ([14]; 25 h) of 0.75 µg/mL (≈ 0.695 µM). It also gave an MIC ([15]; 24 h) of 0.25 µg/mL (≈ 0.232 µM), an MIC ([15]; 25 h) of 0.25 µg/mL (≈ 0.232 µM) and an MIC ([16]; 24 h) of 0.25 µg/mL (≈ 0.232 µM). For the same compound, the MIC ([16]; 25 h) was 0.25 µg/mL (≈ 0.232 µM), the MIC ([17]; 24 h) was 0.05 µg/mL (≈ 0.0464 µM) and the MIC ([17]; 25 h) was 0.05 µg/mL (≈ 0.0464 µM). The MIC ([18]; 24 h) was 0.25 µg/mL (≈ 0.232 µM), the MIC ([18]; 25 h) was 0.25 µg/mL (≈ 0.232 µM) and the MIC ([19]; DSM.20231, 24 h) was 0.05 µg/mL (≈ 0.0464 µM). For the same compound, the MIC ([19]; DSM.20231, 25 h) was 0.05 µg/mL (≈ 0.0464 µM), the MIC ([20]; 24 h) was 1 µg/mL (≈ 0.927 µM) and the MIC ([20]; 25 h) was 1 µg/mL (≈ 0.927 µM). The MIC ([21]; 24 h) was 2.5 µg/mL (≈ 2.32 µM), the MIC ([21]; 25 h) was 2.5 µg/mL (≈ 2.32 µM) and the MIC ([22]; 24 h) was 0.25 µg/mL (≈ 0.232 µM). It also gave an MIC ([22]; 25 h) of 0.25 µg/mL (≈ 0.232 µM), an MIC ([23]; ATTC.9926, 24 h, strain 12, Table O, 24 hours) of 2.5 µg/mL (≈ 2.32 µM) and an MIC ([23]; ATTC.9926, 25 h, strain 12, Tables I-XIII, 25 hours) of 2.5 µg/mL (≈ 2.32 µM). It also gave an MIC ([24]; 24 h) of 0.25 µg/mL (≈ 0.232 µM), an MIC ([24]; 25 h) of 0.25 µg/mL (≈ 0.232 µM) and an MIC ([25]; 24 h) of 0.25 µg/mL (≈ 0.232 µM). For the same compound, the MIC ([25]; 25 h) was 0.25 µg/mL (≈ 0.232 µM), the MIC [26] was 25 µg/mL (≈ 23.2 µM) and the MIC ([27]; 24 h) was 0.25 µg/mL (≈ 0.232 µM). It also gave an MIC ([27]; 25 h) of 0.25 µg/mL (≈ 0.232 µM), an MIC ([28]; 24 h) of 0.25 µg/mL (≈ 0.232 µM) and an MIC ([28]; 25 h) of 0.25 µg/mL (≈ 0.232 µM).
